Measured values as given in US5248673A, “Bisamidine derivatives as thrombin inhibitors” (Bristol-Myers Squibb Co., priority 1992, dated 1993).
Structures can show the parent of a compound that is named as a salt. Where two headings read alike, the source gives them in different places.

Experiments:
[1] = biological target: T1, human α-thrombin (Homo sapiens, UniProt P00734); assay: Enzyme assay for the inhibition of thrombin (s-2238 chromogenic substrate); assay type: biochemical; settings: Table I, determined graphically from Dixon plots, room temperature, pH 7.4, substrate s-2238
T1 construct: purified human α-thrombin
Procedure: Enzyme Assays for the Inhibition of Thrombin The following reagents were used in these assays: […] Inhibitors to be tested were dissolved in H2 O, methanol, or DMSO just prior to use. To each well in a 96-well microtiter plate, 270 μl of assay buffer was added. […] The samples were incubated at room temperature for a defined period of time (3 minutes for initial IC50 determinations). The enzymatic reaction was started with 10 μl of 3 mM s-2238 substrate and continued at room temperature. The change in optical density was measured at 405 nm. A kinetic microplate reader (Molecular Devices Corporation .nu.max) was used to measure the change in optical density over time. Table I lists the Ki values for different compounds, Ki value is determined graphically from Dixon plots (plots of reciprocal enzyme velocity i/v vs. linear function of inhibitor concentration at various enzyme substrate concentrations). This methodology is well known in the art.

[2] = biological target: T1, human α-thrombin; assay: Concentration required for doubling thrombin clotting time (clotting time assay in human plasma); assay type: biochemical; settings: Table II; human citrated plasma, 10 U/ml human thrombin; read-out: DTT (concentration of drug which caused a doubling of the thrombin clotting time)
Procedure: Procedure for Determining the Concentration Required for Doubling Thrombin Clotting Time--Clotting Time Assays
The following reagents were used in these assays:
The blood was centrifugated at […]. The plasma was removed, pooled, and aliquoted into small tubes which were stored frozen for later use.
Clotting times were determined by pipetting 0.1 ml of Owren's buffer (pre-warmed to 37° C.) and 0.1 ml of human or rat plasma into yellow sample cuvettes. For studies with human plasma 10 U/ml human thrombin (10 ml) was placed in the reservoir assembly station of the MLA 700. (Medical Laboratory Automation, Electra 700 Reservoir Assembly). For rat studies, the human thrombin concentration was 25 U/ml. The cuvettes were vortexed and then placed on the MLA 700 sample wheel. The coagulation timer (MLA 700) automatically dispenses 0.1 ml human thrombin into the sample in each cuvette. Detection of the fibrin clot was determined optically by the MLA 700.
Studies were performed to determine the concentration of drug which caused a doubling of the clotting time (DTT) in human plasma.

| Ki ([1]; read-out: Ki) [µM] | Ki [1] | IC (2-fold clotting time) [2] [µM] | SMILES |
| --- | --- | --- | --- |
| 18 |  |  | Cc1ccc(S(=O)(=O)NC(CCCNC(=N)C(=N)N)C(=O)N2CCC(C)CC2)cc1 (stereo not drawn) [Compound 7l, 1-[5-[2-(amino-1,2-diiminoethyl)amino]-2-[[(4-methylphenyl)sulfonyl]amino]-1-oxopentyl]-4-methylpiperidine hydrochloride] |
| 0.33 |  |  | CC1CCN(C(=O)C(CCCNC(=N)C(=N)N)NS(=O)(=O)c2cccc3c(N(C)C)cccc23)CC1 (stereo not drawn) [Compound 7c, 1-[5-[(2-amino-1,2-diiminoethyl)amino]-2-[[[5-(dimethylamino)-1-naphthalenyl]sulfonyl]amino]-1-oxopentyl]-4-methylpiperidine trihydrochloride hydrate] |
|  | insol. | > 300 | Cc1ccc(S(=O)(=O)NC(CNC(=N)C(=N)N)C(=O)N2CCCCC2)cc1 (stereo not drawn) [Compound 7h] |
| 2 |  | 4 | CN(C)c1cccc2c(S(=O)(=O)NC(CCCNC(=N)C(=N)N)C(=O)N3CCOCC3)cccc12 (stereo not drawn) [Compound 7e, 1-[5-[(2-amino-1,2-diiminoethyl)amino]-2-[[[5-(dimethylamino)-1-naphthalenyl]sulfonyl]amino]-1-oxopentyl]morpholine trihydrochloride hydrate] |
| 0.4 |  | 1.8 | CN(C)c1cccc2c(S(=O)(=O)NC(CCCNC(=N)C(=N)N)C(=O)N3CCCCCC3)cccc12 (stereo not drawn) [Compound 7g, 1-[5-(2-amino-1,2-diiminoethyl)amino]-2-[[[5-(dimethylamino)-1-naphthalenyl]sulfonyl]amino]-1-oxopentyl]homopiperidine trihydrochloride hydrate] |
| 3.2 |  |  | CN(C)c1cccc2c(S(=O)(=O)NC(CCCNC(=N)C(=N)N)C(=O)N3CCCCC3)cccc12 (stereo not drawn) [Compound 7a, 1-[5-[(2-amino-1,2-diminoethyl)amino]-2-[[[5-(dimethylamino)-1-naphthalene]amino]-1-oxopentyl]piperidine hydrochloride] |
| 0.3 |  |  | CCC1CCN(C(=O)C(CCCNC(=N)C(=N)N)NS(=O)(=O)c2cccc3c(N(C)C)cccc23)CC1 (stereo not drawn) [Compound 7d, 1-[5-[(2-amino-1,2-diiminoethyl)amino]-2-[[[5-(dimethylamino)-1-naphthalenyl]sulfonyl]amino]-1-oxopentyl]-4-ethylpiperidine trihydrochloride hydrate] |
| 80 |  |  | Cc1ccc(S(=O)(=O)NC(CCNC(=N)C(=N)N)C(=O)N2CCCCC2)cc1 (stereo not drawn) [Compound 7i] |
| 36 |  |  | N=C(N)C(=N)NCCC(NC(=O)CNS(=O)(=O)c1ccc2ccccc2c1)C(=O)N1CCCCC1 (stereo not drawn) [Compound 7m] |
| > 50 |  |  | N=C(N)C(=N)NCCCC(NC(=O)CNS(=O)(=O)c1ccc2ccccc2c1)C(=O)N1CCCCC1 (stereo not drawn) [Compound 7n] |
| 16 |  |  | Cc1ccc(S(=O)(=O)NC(CCCNC(=N)C(=N)N)C(=O)N2CCCCC2)cc1 (stereo not drawn) [Compound 7j] |
| 3 |  |  | CCCCN(CC(=O)OCC)C(=O)C(CCCNC(=N)C(=N)N)NS(=O)(=O)c1cccc2c(N(C)C)cccc12 (stereo not drawn) [Compound 7f, ethyl N-[5-[(2-amino-1,2-diiminoethyl)amino]-2-[[[5-(dimethylamino)-1-naphthalenyl]sulfonyl]amino]-1-oxopentyl]-N-butylglycinate trihydrochloride hydrate] |
| 4 |  |  | CC1CCN(C(=O)C(CCNC(=N)C(=N)N)NS(=O)(=O)c2cccc3c(N(C)C)cccc23)CC1 (stereo not drawn) [Compound 7b] |
| 55 |  | 150 | Cc1ccc(S(=O)(=O)NC(CCCCNC(=N)C(=N)N)C(=O)N2CCCCC2)cc1 (stereo not drawn) [Compound 7k, 1-[6-[(2-amino-1,2-diiminoethyl)aminol]-2-[[(4-methylphenyl)sulfonyl]amino]-1-oxohexyl]piperidine dihydrochloride] |
